Measured values as given in patent publication US12202835B2, “Substituted aromatic ring-linked dioxinoquinazolines and dioxinoquinolines as kinase inhibitors” (BEIJING SCITECH-MQ PHARMACEUTICALS LIMITED, priority 2018, dated 2025).
pIC50: −log10 of the molar value.

Experiments:
TRKA kinase = TRKA kinase (Homo sapiens (Human), UniProt P04629); assay: Assay of small molecular compounds for inhibiting the activity of TRKA kinase (LANCE TR-FRET); format: biochemical
Outline: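 TRKA (supplied as 2 nM 2× solution) was pre-reacted with compounds for 5 min at room temperature before a 4× ULight-TK peptide/ATP mix (400 nM/40 μM) started the 60-min dark reaction at 1% DMSO. After stop and 60-min detection, TR-FRET was read.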

c-MET kinase = c-MET kinase (Homo sapiens (Human), UniProt P08581); assay: Assay of small molecular compounds for inhibiting the activity of c-MET kinase (LANCE TR-FRET); format: biochemical; conditions: read-out: CMET IC50
c-MET kinase, sequence (P08581 25-1390): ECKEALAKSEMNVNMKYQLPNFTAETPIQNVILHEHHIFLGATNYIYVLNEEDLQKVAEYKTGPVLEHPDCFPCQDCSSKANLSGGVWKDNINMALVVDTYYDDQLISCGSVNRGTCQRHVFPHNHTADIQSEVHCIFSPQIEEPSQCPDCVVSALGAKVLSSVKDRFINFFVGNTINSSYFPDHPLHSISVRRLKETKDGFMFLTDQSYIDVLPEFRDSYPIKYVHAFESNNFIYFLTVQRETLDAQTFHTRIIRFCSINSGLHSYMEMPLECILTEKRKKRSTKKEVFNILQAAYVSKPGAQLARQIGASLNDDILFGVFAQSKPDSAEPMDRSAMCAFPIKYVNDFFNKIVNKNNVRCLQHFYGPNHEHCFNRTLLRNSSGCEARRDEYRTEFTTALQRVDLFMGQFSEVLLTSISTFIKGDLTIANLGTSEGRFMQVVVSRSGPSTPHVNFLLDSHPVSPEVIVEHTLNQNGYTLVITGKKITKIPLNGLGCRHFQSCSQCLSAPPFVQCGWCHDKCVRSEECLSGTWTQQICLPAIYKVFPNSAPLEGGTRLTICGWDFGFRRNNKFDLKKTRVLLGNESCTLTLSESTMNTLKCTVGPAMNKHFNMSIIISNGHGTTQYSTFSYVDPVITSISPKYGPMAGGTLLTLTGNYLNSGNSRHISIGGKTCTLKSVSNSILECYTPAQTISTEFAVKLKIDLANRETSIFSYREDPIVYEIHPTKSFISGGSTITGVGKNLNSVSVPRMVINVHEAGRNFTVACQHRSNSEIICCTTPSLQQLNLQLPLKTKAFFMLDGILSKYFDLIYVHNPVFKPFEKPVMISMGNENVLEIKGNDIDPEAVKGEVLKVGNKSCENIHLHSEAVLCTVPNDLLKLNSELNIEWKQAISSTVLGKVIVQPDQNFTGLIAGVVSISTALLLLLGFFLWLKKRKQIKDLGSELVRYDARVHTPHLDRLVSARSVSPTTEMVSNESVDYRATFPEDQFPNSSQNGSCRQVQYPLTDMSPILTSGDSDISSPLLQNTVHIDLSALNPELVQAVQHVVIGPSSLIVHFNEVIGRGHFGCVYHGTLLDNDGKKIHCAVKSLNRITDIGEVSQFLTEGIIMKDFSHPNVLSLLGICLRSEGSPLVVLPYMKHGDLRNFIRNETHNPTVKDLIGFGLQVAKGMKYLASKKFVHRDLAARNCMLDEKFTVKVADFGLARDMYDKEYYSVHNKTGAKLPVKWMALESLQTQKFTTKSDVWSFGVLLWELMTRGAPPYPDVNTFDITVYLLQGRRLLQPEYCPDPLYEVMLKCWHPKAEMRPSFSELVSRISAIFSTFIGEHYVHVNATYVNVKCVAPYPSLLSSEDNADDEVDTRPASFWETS
Outline: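 Eleven final concentrations from 2500 nM down to 0.042 nM, in 4% DMSO, were tested against human c-MET (2× stock 2 nM), with compound and enzyme premixed for 5 min. The phosphorylation reaction used 4× stock of 400 nM ULight-JAK-1 peptide and 40 μM ATP for 60 min at room temperature, then stop and detection steps. TR-FRET percent inhibition against positive and negative controls gave the IC50.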

Ba/F3 LMNA-NTRK1 cells = assay: Assay for inhibiting the proliferation of Ba/F3 LMNA-NTRK1 cells (CCK-8); format: cell-based; conditions: Mus musculus, BaF3
Outline: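 Viability was read as absorbance at 450 nm following 1–2 h CCK-8 incubation at 37 °C, relative to control and blank wells.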

TRKA kinase, sequence (P04629 33-796): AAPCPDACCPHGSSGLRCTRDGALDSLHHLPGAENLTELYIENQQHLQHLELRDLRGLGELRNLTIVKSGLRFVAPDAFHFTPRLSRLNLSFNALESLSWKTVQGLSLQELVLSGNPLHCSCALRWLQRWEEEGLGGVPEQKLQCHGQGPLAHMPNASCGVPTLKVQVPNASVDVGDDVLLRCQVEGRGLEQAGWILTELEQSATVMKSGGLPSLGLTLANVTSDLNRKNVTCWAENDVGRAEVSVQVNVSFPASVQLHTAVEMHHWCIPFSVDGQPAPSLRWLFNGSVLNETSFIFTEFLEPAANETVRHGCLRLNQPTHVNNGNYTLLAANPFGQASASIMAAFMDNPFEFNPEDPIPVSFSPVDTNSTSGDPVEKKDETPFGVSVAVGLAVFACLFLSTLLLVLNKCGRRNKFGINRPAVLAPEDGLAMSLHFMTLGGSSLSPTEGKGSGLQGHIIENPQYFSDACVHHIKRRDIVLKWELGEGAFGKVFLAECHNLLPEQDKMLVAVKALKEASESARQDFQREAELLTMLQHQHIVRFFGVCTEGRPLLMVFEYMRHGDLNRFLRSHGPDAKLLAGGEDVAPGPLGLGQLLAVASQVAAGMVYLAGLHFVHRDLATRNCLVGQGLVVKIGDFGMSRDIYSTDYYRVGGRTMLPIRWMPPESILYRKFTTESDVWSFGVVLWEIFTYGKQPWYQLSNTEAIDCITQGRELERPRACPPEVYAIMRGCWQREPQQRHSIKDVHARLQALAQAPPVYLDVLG

O=C(Nc1ccc(Oc2ccnc3ccc4c(c23)OCCO4)cc1F)c1cccn(-c2ccc(F)cc2)c1=O [Example 170, N-(4-((2,3-dihydro-[1,4]dioxino[2,3-f]quinolin-10-yl)oxy)-2-fluorophenyl)-1-(4-fluorophenyl)-2-oxo-1,2-dihydropyridine-3-carboxamide]
pIC50 (TRKA kinase): > 7.30
pIC50 (c-MET kinase): 6.30 to 7.30

CCn1cc(C(=O)Nc2ccc(Oc3ccnc4cc(OCCOC)c5c(c34)OCCO5)cc2)c(=O)n(-c2ccc(F)cc2)c1=O [Example 148, N-(4-((5-(2-methoxyethoxy)-2,3-dihydro-[1,4]dioxino[2,3-f]quinolin-10-yl)oxy)phenyl)-3-(4-fluorophenyl)-1-ethyl-2,4-dioxo-1,2,3,4-tetrahydropyrimidine-5-carboxamide]
pIC50 (Ba/F3 LMNA-NTRK1 cells): > 7.30
pIC50 (TRKA kinase): > 7.30
pIC50 (c-MET kinase): ≥ 7.30

CCn1cc(C(=O)Nc2cc(F)c(Oc3ccnc4cc(OCCOC)c5c(c34)OCCO5)cc2C)c(=O)n(-c2ccc(F)cc2)c1=O [Example 180, N-(5-fluoro-4-((5-(2-methoxyethoxy)-2,3-dihydro-[1,4]dioxino[2,3-f]quinolin-10-yl)oxy)-2-methylphenyl)-3-(4-fluorophenyl)-1-ethyl-2,4-dioxo-1,2,3,4-tetrahydropyrimidine-5-carboxamide]
pIC50 (Ba/F3 LMNA-NTRK1 cells): > 7.30
pIC50 (TRKA kinase): > 7.30
pIC50 (c-MET kinase): ≥ 7.30

COc1cc2nccc(Oc3ccc(NC(=O)c4cn(C)c(=O)n(-c5ccc(F)cc5)c4=O)c(F)c3)c2c2c1OCCO2 [Example 153, N-(2-fluoro-4-((5-methoxy-2,3-dihydro-[1,4]dioxino[2,3-f]quinolin-10-yl)oxy)phenyl)-3-(4-fluorophenyl)-1-methyl-2,4-dioxo-1,2,3,4-tetrahydropyrimidine-5-carboxamide]
pIC50 (Ba/F3 LMNA-NTRK1 cells): > 7.30
pIC50 (TRKA kinase): > 7.30
pIC50 (c-MET kinase): ≥ 7.30

CC(C)n1cc(C(=O)Nc2ccc(Oc3ccnc4cc(OCCCN5CCOCC5)c5c(c34)OCCO5)c(Cl)c2)c(=O)n(-c2ccc(F)cc2)c1=O [Example 97, N-(3-chloro-4-((5-(3-morpholinopropoxy)-2,3-dihydro-[1,4]dioxino[2,3-f]quinolin-10-yl)oxy)phenyl)-3-(4-fluorophenyl)-1-isopropyl-2,4-dioxo-1,2,3,4-tetrahydropyrimidine-5-carboxamide]
pIC50 (Ba/F3 LMNA-NTRK1 cells): > 7.30
pIC50 (TRKA kinase): > 7.30
pIC50 (c-MET kinase): 6.30 to 7.30

COc1cc2nccc(Oc3ccc(NC(=O)c4cn(C)c(=O)n(-c5ccc(F)cc5)c4=O)c(Cl)c3)c2c2c1OCCO2 [Example 125, N-(2-chloro-4-((5-methoxy-2,3-dihydro-[1,4]dioxino[2,3-f]quinolin-10-yl)oxy)phenyl)-3-(4-fluorophenyl)-1-methyl-2,4-dioxo-1,2,3,4-tetrahydropyrimidine-5-carboxamide]
pIC50 (Ba/F3 LMNA-NTRK1 cells): > 7.30
pIC50 (TRKA kinase): > 7.30
pIC50 (c-MET kinase): 6.30 to 7.30

Cn1cc(C(=O)Nc2ccc(Oc3ncnc4cc(OCCCN5CCOCC5)c5c(c34)OCCO5)c(F)c2)c(=O)n(-c2ccc(F)cc2)c1=O [Example 30, N-(3-fluoro-4-((5-(3-morpholinopropoxy)-2,3-dihydro-[1,4]dioxino[2,3-f]quinazolin-10-yl)oxy)phenyl)-3-(4-fluorophenyl)-1-methyl-2,4-dioxo-1,2,3,4-tetrahydropyrimidine-5-carboxamide]
pIC50 (Ba/F3 LMNA-NTRK1 cells): > 7.30
pIC50 (TRKA kinase): > 7.30
pIC50 (c-MET kinase): ≥ 7.30

CCn1cc(C(=O)Nc2ccc(Oc3ccnc4cc(OCCOC)c5c(c34)OCCO5)cc2F)c(=O)n(-c2ccc(F)cc2)c1=O [Example 156, N-(2-fluoro-4-((5-(2-methoxyethoxy)-2,3-dihydro-[1,4]dioxino[2,3-f]quinolin-10-yl)oxy)phenyl)-3-(4-fluorophenyl)-1-ethyl-2,4-dioxo-1,2,3,4-tetrahydropyrimidine-5-carboxamide]
pIC50 (Ba/F3 LMNA-NTRK1 cells): > 7.30
pIC50 (TRKA kinase): > 7.30
pIC50 (c-MET kinase): ≥ 7.30

COc1cc2ncnc(Oc3ccc(NC(=O)c4cn(C)c(=O)n(-c5ccc(F)cc5)c4=O)cc3F)c2c2c1OCCO2 [Example 29, N-(3-fluoro-4-((5-methoxy-2,3-dihydro-[1,4]dioxino[2,3-f]quinazolin-10-yl)oxy)phenyl)-3-(4-fluorophenyl)-1-methyl-2,4-dioxo-1,2,3,4-tetrahydropyrimidine-5-carboxamide]
pIC50 (Ba/F3 LMNA-NTRK1 cells): > 7.30
pIC50 (TRKA kinase): > 7.30
pIC50 (c-MET kinase): ≥ 7.30

CCn1cc(C(=O)Nc2ccc(Oc3ccnc4cc(OC)c5c(c34)OCCO5)cc2)c(=O)n(-c2ccc(F)cc2)c1=O [Example 146, N-(4-((5-methoxy-2,3-dihydro-[1,4]dioxino[2,3-f]quinolin-10-yl)oxy)phenyl)-3-(4-fluorophenyl)-1-ethyl-2,4-dioxo-1,2,3,4-tetrahydropyrimidine-5-carboxamide]
pIC50 (Ba/F3 LMNA-NTRK1 cells): > 7.30
pIC50 (TRKA kinase): > 7.30
pIC50 (c-MET kinase): ≥ 7.30

O=C(Nc1ccc(Oc2ccnc3cc(OCCCN4CCOCC4)c4c(c23)OCCO4)cc1Cl)c1cccn(-c2ccc(F)cc2)c1=O [Example 143, N-(2-chloro-4-((5-(3-morpholinopropoxy)-2,3-dihydro-[1,4]dioxino[2,3-f]quinolin-10-yl)oxy)phenyl)-1-(4-fluorophenyl)-2-oxo-1,2-dihydropyridine-3-carboxamide]
pIC50 (Ba/F3 LMNA-NTRK1 cells): > 7.30
pIC50 (TRKA kinase): > 7.30
pIC50 (c-MET kinase): ≥ 7.30

COc1ccn(-c2ccc(F)cc2)c(=O)c1C(=O)Nc1ccc(Oc2ccnc3ccc4c(c23)OCCO4)cc1F [Example 172, N-(4-((2,3-dihydro-[1,4]dioxino[2,3-f]quinolin-10-yl)oxy)-2-fluorophenyl)-1-(4-fluorophenyl)-4-methoxy-2-oxo-1,2-dihydropyridine-3-carboxamide]
pIC50 (TRKA kinase): > 7.30
pIC50 (c-MET kinase): 6.30 to 7.30

COCCOc1cc2nccc(Oc3cc(C)c(NC(=O)c4cn(C)c(=O)n(-c5ccc(F)cc5)c4=O)cc3F)c2c2c1OCCO2 [Example 179, N-(5-fluoro-4-((5-(2-methoxyethoxy)-2,3-dihydro-[1,4]dioxino[2,3-f]quinolin-10-yl)oxy)-2-methylphenyl)-3-(4-fluorophenyl)-1-methyl-2,4-dioxo-1,2,3,4-tetrahydropyrimidine-5-carboxamide]
pIC50 (Ba/F3 LMNA-NTRK1 cells): > 7.30
pIC50 (TRKA kinase): > 7.30
pIC50 (c-MET kinase): ≥ 7.30

COc1cc2nccc(Oc3cc(C)c(NC(=O)c4cn(C)c(=O)n(-c5ccc(F)cc5)c4=O)cc3F)c2c2c1OCCO2 [Example 177, N-(5-fluoro-4-((5-methoxy-2,3-dihydro-[1,4]dioxino[2,3-f]quinolin-10-yl)oxy)-2-methylphenyl)-3-(4-fluorophenyl)-1-methyl-2,4-dioxo-1,2,3,4-tetrahydropyrimidine-5-carboxamide]
pIC50 (Ba/F3 LMNA-NTRK1 cells): > 7.30
pIC50 (TRKA kinase): > 7.30
pIC50 (c-MET kinase): ≥ 7.30

CC(C)(O)COc1cc2nccc(Oc3ccc(NC(=O)c4cccn(-c5ccc(F)cc5)c4=O)c(Cl)c3)c2c2c1OCCO2 [Example 139, N-(2-chloro-4-((5-(2-hydroxy-2-methylpropoxy)-2,3-dihydro-[1,4]dioxino[2,3-f]quinolin-10-yl)oxy)phenyl)-1-(4-fluorophenyl)-2-oxo-1,2-dihydropyridine-3-carboxamide]
pIC50 (Ba/F3 LMNA-NTRK1 cells): > 7.30
pIC50 (TRKA kinase): > 7.30
pIC50 (c-MET kinase): ≥ 7.30

COc1cc2nccc(Oc3ccc(NC(=O)c4cn(C)c(=O)n(-c5ccc(F)cc5)c4=O)cc3)c2c2c1OCCO2 [Example 145, N-(4-((5-methoxy-2,3-dihydro-[1,4]dioxino[2,3-f]quinolin-10-yl)oxy)phenyl)-3-(4-fluorophenyl)-1-methyl-2,4-dioxo-1,2,3,4-tetrahydropyrimidine-5-carboxamide]
pIC50 (Ba/F3 LMNA-NTRK1 cells): > 7.30
pIC50 (TRKA kinase): > 7.30
pIC50 (c-MET kinase): ≥ 7.30

CCOc1cc2nccc(Oc3ccc(NC(=O)c4cn(C)c(=O)n(-c5ccc(F)cc5)c4=O)c(Cl)c3)c2c2c1OCCO2 [Example 129, N-(2-chloro-4-((5-ethoxy-2,3-dihydro-[1,4]dioxino[2,3-f]quinolin-10-yl)oxy)phenyl)-3-(4-fluorophenyl)-1-methyl-2,4-dioxo-1,2,3,4-tetrahydropyrimidine-5-carboxamide]
pIC50 (Ba/F3 LMNA-NTRK1 cells): > 7.30
pIC50 (TRKA kinase): > 7.30
pIC50 (c-MET kinase): ≥ 7.30

CCOc1cc2nccc(Oc3ccc(NC(=O)c4c(OCC)ccn(-c5ccc(F)cc5)c4=O)c(Cl)c3)c2c2c1OCCO2 [Example 130, N-(2-chloro-4-((5-ethoxy-2,3-dihydro-[1,4]dioxino[2,3-f]quinolin-10-yl)oxy)phenyl)-1-(4-fluorophenyl)-4-ethoxy-2-oxo-1,2-dihydropyridine-3-carboxamide]
pIC50 (Ba/F3 LMNA-NTRK1 cells): > 7.30
pIC50 (TRKA kinase): > 7.30
pIC50 (c-MET kinase): ≥ 7.30

COCCOc1cc2nccc(Oc3ccc(NC(=O)c4cn(C)c(=O)n(-c5ccc(F)cc5)c4=O)c(F)c3)c2c2c1OCCO2 [Example 155, N-(2-fluoro-4-((5-(2-methoxyethoxy)-2,3-dihydro-[1,4]dioxino[2,3-f]quinolin-10-yl)oxy)phenyl)-3-(4-fluorophenyl)-1-methyl-2,4-dioxo-1,2,3,4-tetrahydropyrimidine-5-carboxamide]
pIC50 (Ba/F3 LMNA-NTRK1 cells): > 7.30
pIC50 (TRKA kinase): > 7.30
pIC50 (c-MET kinase): ≥ 7.30

O=C(Nc1ccc(Oc2ccnc3ccc4c(c23)OCCO4)c(F)c1)c1cccn(-c2ccc(F)cc2)c1=O [Example 169, N-(4-((2,3-dihydro-[1,4]dioxino[2,3-f]quinolin-10-yl)oxy)-3-fluorophenyl)-1-(4-fluorophenyl)-2-oxo-1,2-dihydropyridine-3-carboxamide]
pIC50 (TRKA kinase): > 7.30
pIC50 (c-MET kinase): ≥ 7.30

CCOc1ccn(-c2ccc(F)cc2)c(=O)c1C(=O)Nc1ccc(Oc2ccnc3ccc4c(c23)OCCO4)cc1F [Example 171, N-(4-((2,3-dihydro-[1,4]dioxino[2,3-f]quinolin-10-yl)oxy)-2-fluorophenyl)-1-(4-fluorophenyl)-4-ethoxy-2-oxo-1,2-dihydropyridine-3-carboxamide]
pIC50 (TRKA kinase): > 7.30
pIC50 (c-MET kinase): ≥ 7.30
